# Legend:
# [1] = logP determination by HPLC (EEC Directive 79/831 Annex V. A8); assay type: physicochemical; conditions: pH 2; pH2; HPLC gradient method, acetonitrile/0.1% strength aqueous phosphoric acid
# Experimental: [logP=The logP values were determined in accordance with EEC Directive 79/831 Annex V. A8 by HPLC (gradient method, acetonitrile/0.1% strength aqueous phosphoric acid]
# [2] = test system: caterpillars of the owlet moth (Spodoptera exigua); assay: Spodoptera exigua Test; assay type: in vivo; conditions: active compound concentration of 0.0008%; after 6 days; dipped cabbage leaves (Brassica oleracea)
# Experimental: Solvent: 7 parts by weight of dimethylformamide
# Emulsifier: 1 part by weight of alkylaryl polyglycol ether
# After the desired period of time, the kill in % is determined. 100% means that all caterpillars have been killed; 0% means that none of the caterpillars have been killed.
structure (smiles),measurement,setting,value
"CCc1nccc(N(C(=O)Cc2ccc(Oc3ccc(C(N)=S)cc3)cc2)C(=O)OC(C)C)c1Cl [Preparation Example 1, N-(3-chloro-2-ethyl-pyridin-4-yl)-N-isopropoxycarbonyl-4-(4-aminothiocarbonylphenoxy)-phenylacetamide]",chromatographic logP,[1],3.71
same,kill in %,[2],100%

# — patent US6335325B1, “Acylated 4-aminopyridine derivatives as pesticides and fungicides” (Bayer Aktiengesellschaft, priority 1997, dated 2002)
